Reference: patent US8986701B2, “Enzyme prodrug cancer therapy selectively targeted to tumor vasculature and methods of production and use thereof” (The Board of Regents of the University of Oklahoma, priority 2003, dated 2015)

What was measured:
endothelial cells = conditions: van Heerde et al., 1994a and b; read-out: Kd, literature values of annexin V binding alone to endothelial cells; cited from earlier work
[1] = tested on: MDA-MB-231 breast cancer cells; assay: In vitro enzyme prodrug cytotoxicity (Alamar Blue), MDA-MB-231; assay type: cell-based, human; conditions: 500 μM L-methionine
Experimental: (§1) In Vitro Enyzme Prodrug Cytotoxicty to Cells: The experiment lasted 3 days, using the same cells for each of the days (day 0, 1, 2, and 3). Cells were grown and plated in 24-well plates with respective growth media using the same procedure as for the FP binding assay (see above). […] On day 0, a saturating concentration of FP was diluted in medium was added and incubated for 2 hours at 37° C. The plates were washed, and medium containing SeMet varying from 0 to 500 μM was added. The Alamar Blue assay was performed on all wells on day 0. […] The solution was transferred to an opaque 96-well plate, and the fluorescence was read at 590 nm using excitation at 530 nm. The blank consisted of wells containing only medium (no cells). After the fluorescence reading, the plates were washed, replaced with fresh medium, and then placed in incubator. The readings were taken every 24 hours for the duration of the experiment. […] The ability of the enzyme prodrug system to eliminate human endothelial cells and breast cancer cells was evaluated using cells grown in vitro and plated on 24-well plates. […] Each of the cell lines in question metabolized the Alamar Blue to produce a fluorescence that was measured to quantify total cell viability. For each day, the fluorescence data from the Alamar Blue assay was expressed as a percentage of the fluorescence for the cells with no FP and 0 μM SeMet (control). […]

HAAE-1 endothelial cells [2] = assay: In vitro enzyme prodrug cytotoxicity (Alamar Blue), endothelial cells; assay type: cell-based, human; conditions: with saturating FP; 10 and 100 μM SeMet; days 2 and 3; 500 μM L-methionine
Experimental: as §1

[3] = tested on: MCF-7 breast cancer cells; assay: In vitro enzyme prodrug cytotoxicity (Alamar Blue), MCF-7; assay type: cell-based, human
Experimental: as §1

[4] = tested on: PS exposed on MDA-MB-231 breast cancer cells; assay: Fusion protein equilibrium binding assay, MDA-MB-231; set-up: species or system human; conditions: specific binding, biotin-labeled FP, no H2O2, read-out: dissociation constant (Kd)
Experimental: (§2) Fusion Protein Binding Assay: Endothelial cells were grown to 70-80% confluence in T-75 flasks. Cells were transferred to 24-well culture plates (5×10^4 cells/well) and grown to 80-85% confluence. Cells were fixed to the plate using 0.25% glutaraldehyde in binding buffer (PBS with 2 mM Ca^2+). Excess aldehyde groups were quenched using 50 mM NH4Cl in binding buffer. Varying concentrations of biotinylated FP were diluted in binding buffer containing 0.5% BSA and incubated at 37° C. for 2 hours. After washing with binding buffer with 0.5% BSA, streptavidin-HRP was added at 2 μg/ml and incubated at room temperature for 1 hour. Following washing with binding buffer, HRP was measured by adding the chromogenic substrate O-phenylenediamine (0.4 mg/ml) and hydrogen peroxide (0.012%) in phosphate-citrate buffer. After 30 minutes at room temperature in the dark, the solution was transferred to a transparent 96-well plate, and the absorbance was read at 450 nm on a microtiter plate reader. […] To determine non-specific binding, the same procedure was performed with no Ca^2+ and 5 mM EDTA in the binding buffer. […]
(§3) Binding of Fusion Protein: The ability of the Meth-AnnV FP to bind to human endothelial cells and breast cancer cells with PS exposed on the cell surface was evaluated by equilibrium binding experiments in which increasing concentrations of biotin-labeled FP were used. […]

[5] = tested on: PS exposed on MCF-7 breast cancer cells; assay: Fusion protein equilibrium binding assay, MCF-7; set-up: species or system human; conditions: specific binding, biotin-labeled FP, no H2O2, read-out: dissociation constant (Kd)
Experimental: as §2, §3

[6] = tested on: PS exposed on HAAE-1 aorta endothelial cells; assay: Fusion protein equilibrium binding assay, endothelial cells; set-up: species or system human; conditions: specific binding (total minus non-specific without Ca2+), biotin-labeled FP, no H2O2, read-out: dissociation constant (Kd)
Experimental: as §2, §3

[7] = Storage stability of L-methioninase activity in lyophilized form; assay type: physicochemical; conditions: lyophilized form at −80° C.
[8] = L-methioninase enzyme activity with L-methionine as substrate; assay type: biochemical
Experimental: Protein Content and Enzymatic Activity Determination: The Bradford assay from Bio-Rad (Hercules, Calif.) was used for all protein determinations throughout the purification using bovine serum albumin (BSA) as the standard. Samples were analyzed by denaturing gel electrophoresis using the SDS-PAGE method with Coomassie blue staining (Laemmli, 1970).

MCF-7 cells = assay: Binding stability assay, MCF-7; assay type: cell-based, human
Experimental: (§4) Binding Stability Assay: To assess how long the FP remains bound to the surface of the endothelial cells, a modified binding assay was used. Cells on 24-well plates were first incubated for 2 hours at 37° C. in a saturating concentration of biotinylated FP (50 nM) in complete growth medium with 2 mM Ca^2+. Then, the cells were fixed either at day 0, 1, 2 or 3 with 0.25% glutaraldehyde in binding buffer. Excess aldehyde groups were quenched by incubation in a 50 mM NH4Cl in binding buffer. The binding of FP was then quantitated using the same procedure used in the FP binding assay (see above).
(§5) Binding Stability: To assess how long the FP remains bound to the surface of the endothelial cells, a modified binding assay was used. Cells on 24-well plates were first incubated for 2 hours at 37° C. in a saturating concentration of biotinylated FP (50 nM) in complete growth medium with 2 mM Ca^2+. […] The binding of FP was then quantified using the same procedure used in the equilibrium FP binding assay. […] For each cell line, the slope by linear regression of the absorbance/RFU versus time data was obtained, with results as follows: 3.07×10^−5 per day for the endothelial cells (HAAE-1), 4.63×10^−5 per day for the MCF-7 cells, and 5.38×10^−5 per day for the MDA-MB-231 cells. Thus, the rate of change of absorbance/RFU was the lowest for the endothelial cells.

MDA-MB-231 cells = assay: Binding stability assay, MDA-MB-231; assay type: cell-based, human
Experimental: as §4, §5

HAAE-1 endothelial cells [9] = assay: Binding stability assay, endothelial cells; assay type: cell-based, human
Experimental: as §4, §5

[10] = L-methioninase from P. putida; Esaki and Soda 1987; cited from earlier work
[11] = tested on: human brain tumor xenografts; conditions: cited from earlier work
[12] = period of the experiment 3 days
[13] = 50 nM biotinylated FP, days 0-3, 500 μM L-methionine

In the case of “annexin V: Ca2+-dependent anionic phospholipid binding protein; literature comparator for binding”, the Kd (endothelial cells) is given as 2.7 to 15.5 nM.
With `C[Se]CC[C@H](N)C(=O)O` [SeMet, selenomethionine] the “cell killing (cell viability, Alamar Blue) vs same SeMet without FP” value (from here on “cell killing … vs same SeMet without FP”) ([1]; with saturating FP, 10 and 500 μM SeMet, days 1, 2 and 3) was “significant killing”, the “cell killing … vs same SeMet without FP” value (HAAE-1 endothelial cells [2]) was “Significant cell killing” and the “cell viability vs control, SeMet by itself” value ([3]; no FP, 500 μM SeMet, day 3, p<0.05) was “significantly lower”. The “cell killing … vs same SeMet without FP” value ([3]; with saturating FP, day 2 with 500 μM SeMet, day 3 with 100 and 500 μM SeMet, 2000 μM L-methionine) was “significant cell killing”.
“FP: Fusion protein of Pseudomonas putida L-methioninase linked by a flexible linker to human annexin V, SEQ ID NO:2” showed a Kd [4] of 2.2 ± 1.2 nM, a Kd [5] of 1.9 ± 1.2 nM and a Kd [6] of 1.7 ± 0.6 nM. For the same molecule, the “cell viability when FP added, no SeMet present” value ([1]; no SeMet) was “significant decrease in cell viability”, the “L-methioninase activity on storage” value [7] was “remained relatively constant” and the methioninase specific activity ([8]; lyophilized FP) was 1.0 U/mg of protein. For the same molecule, the Specific activity ([8]; purification step: After lyophilized) was 1.04 U/mg, the “slope by linear regression of absorbance/RFU versus time” value (“slope … of absorbance/RFU versus time” below) (MCF-7 cells; 50 nM biotinylated FP, days 0-3, 2000 μM L-methionine) was 4.63×10^−5 per day and the “duration FP stays bound to the cells” value (MCF-7 cells; [12]) was “at least 3 days”. For the same molecule, the “slope … of absorbance/RFU versus time” value (MDA-MB-231 cells; [13]) was 5.38×10^−5 per day, the “duration FP stays bound to the cells” value (MDA-MB-231 cells; [12]) was “at least 3 days” and the “slope … of absorbance/RFU versus time” value (HAAE-1 endothelial cells [9]; [13]) was 3.07×10^−5 per day. The “duration FP stays bound to the cells” value (HAAE-1 endothelial cells [9]; [12]) was “at least 3 days”.
For “L-methionine-α-deamino-γ-mercaptomethane-lyase [L-methioninase]”, the “relative reactivity for DL-selenomethionine substrate versus L-methionine substrate” value [10] is listed as 2.8 times, the “tumor regression, share of animals” value ([11]; after a 10-day period, same combined treatment) is listed as “one-third” and the “tumor stasis, share of treated animals” value ([11]; within four days, 44 mg/kg per day i.p. with homocystine and diet restricted in methionine, homocysteine, choline) is listed as 100%.
